# Results from patent US11738065B2, “Polypeptides and analogues thereof for use in the treatment of diabetes and bone disorders” (UNIVERSITY OF ULSTER, priority 2015, dated 2023).
# Where a SMILES comes first, the peptide text is derived from it. [ ]: non-standard residue; d: D form.
# Experiments:
# BRIN-BD11 cells = test: In vitro insulin secretion from BRIN-BD11 cells; format: cell-based; settings: 20 min; for Insulin secretion from BRIN-BD11 cells: 10^−6 mol/l peptide, vs 5.6 and 16.7 mmol/l glucose control
# Method: BRIN-BD11 cells were used to assess the insulin releasing activity of polypeptides as described by […] et al., 1996 (Diabetes. 1996 August; 45(8):1132-40). Cells were cultured in RPMI-1640 growth media supplemented with 10% (v/v) foetal bovine serum (FBS) and 1% (v/v) antibiotics (penicillin (100 U/ml), streptomycin ([…])), in 75 cm2 sterile tissue culture flasks (Greiner bio-one, UK) maintained at 37° C. and 5% CO2 in a LEEC incubator (Laboratory technical engineering, Nottingham, UK). BRIN-BD11 cells were then seeded at a density of 150,000 cells/well in 24-well plates (Nunc, Roskilde, Denmark) and allowed to attach overnight at 37° C.
# lean control mice [1] = test: Acute food intake in lean control mice; format: in vivo; settings: 250 nmol/kg i.p.
# Method: Acute animal studies were conducted in male NIH Swiss mice (12-14 weeks old, Harlan Ltd, UK) maintained on a standard rodent maintenance diet (10% fat, 30% protein and 60% carbohydrate, Trouw Nutrition, Cheshire, UK). […] All animals were housed individually in an air-conditioned room at 22±2° C. with a 12 h light:12 h dark cycle and had free access to food and water. All animal experiments were carried out in accordance with the UK Animals (Scientific Procedures) Act 1986.
# lean control mice [2] = test: Acute and persistent glucose lowering and insulin releasing effects in lean control mice; format: in vivo
# Method: All animal experiments were carried out in accordance with the UK Animals (Scientific Procedures) Act 1986. For food intake studies, fasted (18 h) mice were given intraperitoneal (i.p) injections of polypeptides at a dose of 25, 100 or 250 nmol/kg bw. Mice were then allowed free access to normal chow for 180 mins and cumulative food intake measured. […] Blood samples were collected from the cut tip on the tail vein of conscious mice into chilled fluoride/heparin glucose micro-centrifuge tubes (Sarstedt, Numbrecht, Germany) at the time points indicated in the Drawings. Blood glucose was measured directly using a hand-held Ascencia Contour blood glucose meter (Bayer Healthcare, Newbury, Berkshire, UK).
# DPP-4 = biological target: T1, DPP-4 (Sus scrofa, UniProt P22411); test: DPP-4 degradation / in vitro DPP-4 half-life; format: in vitro ADME, porcine; settings: pig; 37° C., 50 mmol/L TEA-HCl pH 7.8, 5 mU purified porcine DPP-4, 0-12 h
# T1 construct: purchased Sigma-Aldrich, Dorset, UK
# Method: (§1) For calculation of experimental molecular masses, peptide samples (1 μg) were mixed with α-cyano-4-hydroxycinnamic acid (1 μg) and applied to a Voyager-DE BioSpectrometry Workstation and mass-to-charge (m/z) ratio verses peak intensity recorded by MALDI-TOF mass spectrometry. […] Degradation profiles were obtained using rp-HPLC analysis and HPLC peak area data used to calculate percentage intact peptide remaining at each time point.
# (§2) Briefly, polypeptides (20 μg) were incubated with 5 μl of purified DPP-4 (5 mU, Sigma-Aldrich, Dorset, UK) in 50 mM TEA-HCl (pH 7.8; final volume 450 μl) at 37° C. for 0, 1, 4 and 12 hours. Enzymatic reactions were terminated by the addition of 50 μl TFA/H2O (10% v/v, Sigma-Aldrich, Dorset, UK). Reaction products were then separated by HPLC and analysed using MALDI-TOF.
# purified porcine DPP-4 = biological target: T2, purified porcine DPP-4 (Sus scrofa, UniProt P22411); test: DPP-4 degradation / in vitro DPP-4 half-life; format: in vitro ADME; settings: incubated in the presence of DPP-4 for up to 12 hs
# T2 construct: purchased Sigma-Aldrich, Dorset, UK
# Method: as §1, §2
# T1 sequence (P22411 whole entry): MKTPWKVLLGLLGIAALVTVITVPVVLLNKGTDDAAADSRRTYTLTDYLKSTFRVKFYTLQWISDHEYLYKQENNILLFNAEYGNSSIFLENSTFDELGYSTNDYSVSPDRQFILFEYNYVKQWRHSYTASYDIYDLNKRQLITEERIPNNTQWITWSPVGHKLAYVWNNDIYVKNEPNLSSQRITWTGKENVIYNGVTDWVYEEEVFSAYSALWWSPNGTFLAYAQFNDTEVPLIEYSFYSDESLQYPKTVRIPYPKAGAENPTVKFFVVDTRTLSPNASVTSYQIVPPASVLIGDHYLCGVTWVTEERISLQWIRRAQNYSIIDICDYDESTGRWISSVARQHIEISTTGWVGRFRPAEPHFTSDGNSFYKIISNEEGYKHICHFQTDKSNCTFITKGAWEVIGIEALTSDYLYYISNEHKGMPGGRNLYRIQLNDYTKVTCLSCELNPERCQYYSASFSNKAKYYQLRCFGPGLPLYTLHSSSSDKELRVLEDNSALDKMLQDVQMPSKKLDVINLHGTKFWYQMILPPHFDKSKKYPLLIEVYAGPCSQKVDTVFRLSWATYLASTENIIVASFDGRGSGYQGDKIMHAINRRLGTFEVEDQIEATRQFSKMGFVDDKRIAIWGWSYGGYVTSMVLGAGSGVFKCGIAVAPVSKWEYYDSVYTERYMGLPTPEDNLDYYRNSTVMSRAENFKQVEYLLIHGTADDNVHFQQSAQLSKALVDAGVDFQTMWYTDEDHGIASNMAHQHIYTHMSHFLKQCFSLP
# T2 sequence (P22411 whole entry): as above
compound,measurement,setting,value
HIS-PRO-GLN-GLN-PRO-TRP-ILE-LEU-GLY-ALA-ALA-GLU-GLU-GLU-GLU-GLU-GLU (HPQQPWILGAAEEEEEE; listed as Homo sapiens) [GIP(L-Glu)],Insulin secretory effect in BRIN BD11 beta-cells of C-terminally modified peptide,"BRIN-BD11 cells; 10^−12-10^−6 M, vs 5.6 mM glucose alone",does not hinder biological activity at the cellular level
"MET-LEU-THR-LYS-PHE-GLU-THR-LYS-SER-ALA-ARG-VAL-LYS-GLY-LEU-SER-PHE-HIS-PRO-LYS-ARG-PRO-TRP-ILE-LEU (MLTKFETKSARVKGLSFHPKRPWIL; listed as Homo sapiens) [xenin, reference compound]",Appetite suppressive effect at 90 min post-injection,lean control mice [1]; vs control,significantly (P<0.05) superior to control mice
same,Insulin secretion from BRIN-BD11 cells,BRIN-BD11 cells,significantly (P<0.05 to P<0.001) stimulated insulin secretion
"HIS-PRO-LYS-ARG-PRO-TRP-ILE-LEU (HPKRPWIL; listed as Homo sapiens) [xenin-8, reference compound]",Insulin secretion from BRIN-BD11 cells,BRIN-BD11 cells,significantly (P<0.05 to P<0.001) stimulated insulin secretion
HIS-PRO-GLN-GLN-PRO-TRP-ILE-LEU (HPQQPWIL; listed as Homo sapiens) [xenin-8-Gln],Cumulative food intake at 120 min post-injection,lean control mice [1],significant (P<0.05) reductions in cumulative food intake
same,"Glucose lowering or insulin releasing effects, peptide 4 h prior to glucose load",lean control mice [2]; 25 nmol/kg 4 h before glucose 18 mmol/kg,devoid of any beneficial glucose lowering or insulin releasing effects
same,Blood glucose at 30 min post injection,"lean control mice [2]; 25 nmol/kg with glucose 18 mmol/kg i.p., non-fasted mice, vs glucose alone",significantly (P<0.05) lowered blood glucose values
same,Overall 0-105 min AUC blood glucose,"lean control mice [2]; 25 nmol/kg with glucose 18 mmol/kg i.p., vs glucose alone",significantly (P<0.05) decreased
same,Insulin secretion from BRIN-BD11 cells,BRIN-BD11 cells,significantly (P<0.05 to P<0.001) stimulated insulin secretion
"CC[C@H](C)[C@H](NC(=O)[C@H](CO)NC(=O)[C@H](Cc1ccc(O)cc1)NC(=O)[C@H](CC(=O)O)NC(=O)[C@H](CO)NC(=O)[C@@H](NC(=O)[C@H](Cc1ccccc1)NC(=O)[C@@H](NC(=O)CNC(=O)[C@H](CCC(=O)O)NC(=O)[C@H](C)NC(=O)[C@@H](N)Cc1ccc(O)cc1)[C@@H](C)O)[C@@H](C)CC)C(=O)N[C@@H](C)C(=O)N[C@@H](CCSC)C(=O)N[C@@H](CC(=O)O)C(=O)N[C@@H](CCCCN)C(=O)N[C@H](C(=O)N[C@@H](Cc1c[nH]cn1)C(=O)N[C@@H](CCC(N)=O)C(=O)N[C@@H](CCC(N)=O)C(=O)N[C@@H](CC(=O)O)C(=O)N[C@@H](Cc1ccccc1)C(=O)N[C@H](C(=O)N[C@@H](CC(N)=O)C(=O)N[C@@H](Cc1c[nH]c2ccccc12)C(=O)N[C@@H](CC(C)C)C(=O)N[C@@H](CC(C)C)C(=O)N[C@@H](C)C(=O)N[C@@H](CCC(N)=O)C(=O)N[C@@H](CCCCN)C(=O)NCC(=O)N[C@@H](CCCCN)C(=O)N[C@@H](CCCCN)C(=O)N[C@@H](CC(N)=O)C(=O)N[C@@H](CC(=O)O)C(=O)N[C@@H](Cc1c[nH]c2ccccc12)C(=O)N[C@@H](CCCCN)C(=O)N[C@@H](Cc1c[nH]cn1)C(=O)N[C@@H](CC(N)=O)C(=O)N[C@H](C(=O)N[C@H](C(=O)N[C@@H](CCC(N)=O)C(=O)O)[C@@H](C)O)[C@@H](C)CC)C(C)C)[C@@H](C)CC [Native GIP, reference compound]",half-life at 44.4 µg/mL,DPP-4,< 1 h
"CC[C@H](C)[C@H](NC(=O)[C@H](CO)NC(=O)[C@H](Cc1ccc(O)cc1)NC(=O)[C@H](CC(=O)O)NC(=O)[C@H](CO)NC(=O)[C@@H](NC(=O)[C@H](Cc1ccccc1)NC(=O)[C@@H](NC(=O)CNC(=O)[C@H](CCC(=O)O)NC(=O)[C@@H](C)NC(=O)[C@@H](N)Cc1ccc(O)cc1)[C@@H](C)O)[C@@H](C)CC)C(=O)N[C@@H](C)C(=O)N[C@@H](CCSC)C(=O)N[C@@H](Cc1c[nH]cn1)C(=O)N1CCC[C@H]1C(=O)N[C@@H](CCC(N)=O)C(=O)N[C@@H](CCC(N)=O)C(=O)N1CCC[C@H]1C(=O)N[C@@H](Cc1c[nH]c2ccccc12)C(=O)N[C@H](C(=O)N[C@@H](CC(C)C)C(=O)O)[C@@H](C)CC [(DAla2)GIP/xenin-8-Gln, TYR-(d)ALA-GLU-GLY-THR-PHE-ILE-SER-ASP-TYR-SER-ILE-ALA-MET-HIS-PRO-GLN-GLN-PRO-TRP-ILE-LEU] (H-Y[dA]EGTFISDYSIAMHPQQPWIL-OH; N-terminus and C-terminus assumed)",half-life at 44.4 µg/mL,DPP-4,> 12 h
same,Intactness on incubation with DPP-4,purified porcine DPP-4,remained fully intact
